Laboratory results reported in EP0603240B1, “SAFENING HERBICIDAL PYRAZOLYLSULFONYLUREAS” (priority 1991, dated 1993).

Assays:
Format in all cases: in vivo
corn [1] = test: Example 7, Procedure II: Herbicide No. 1 + metolachlor (No. 12) with antidotes
Procedure, shortened: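 Herbicide plus antidote, applied in acetone, mixed into silt loam top soil used to cover corn seed beds, with untreated and herbicide-only controls. After incorporation, containers got overhead irrigation equal to 0.6 cm rainfall, then sub-irrigation in greenhouse. Percent injury scored; antidote efficacy is injury difference; duplicate averages.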

corn [2] = test: Example 3, Procedure I: antidotes against Herbicide No. 1
Procedure, shortened: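 Herbicide and antidote, each in acetone, mixed into a soil layer covering the seeded corn bed; untreated and herbicide-only controls run alongside. Greenhouse, sub-irrigated, barnyardgrass present; herbicide 4.48 down to 0.56 kg/ha. Percent injury scored; efficacy = injury without minus with antidote.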

[3] = tested on: barnyardgrass (Echinochloa crusgalli); test: Example 11, Procedure II: Herbicide No. 1 + metazachlor (No. 14) with antidotes
Method: (§1) Containers were filled and compacted with a fumigated silt loam top soil to a depth of about 1.3 cm from the top of the container. A first container was designated as an untreated control, a second container was designated as a herbicide control, and a third container was designated as a herbicide + antidote test container. Each of the containers was seeded with a crop species. A measured amount of herbicide dispersed or dissolved in acetone was applied to a measured quantity of soil. To this same quantity of soil treated with herbicide, there was added a measured amount of antidote dispersed or dissolved in acetone. The quantity of soil treated with the herbicide and antidote was thoroughly mixed to incorporate the herbicide and antidote in the soil uniformly. The seed bed in the third container of soil was covered with the soil treated with the herbicide and antidote and the container was leveled. For each test series, the seed beds of the first and second containers were likewise covered by soil layers. the cover layer of the first container was not treated with herbicide or antidote.
(§2) The containers were then placed on a bench in a greenhouse and sub-irrigated as required for the duration of the test. […] Plant response is measured in terms of percent injury. Antidote efficacy is indicated as the difference in plant injury by the herbicide(s) without the antidote and with the antidote.
(§3) This procedure is the same as Procedure I, but modified in the manner that after incorporation of the chemicals (herbicide and antidote) the containers with the covered seedbed were treated with an initial overhead irrigation equivalent to 0.6 cm rainfall, then subsequently sub-irrigated as required on greenhouse benches.
(§4) In the series of greenhouse tests described below, for routine screening purposes the herbicide/antidote compositions were tested in crop/weed combinations involving corn as the crop and either or both of the weeds barnyardgrass (Echinochloa crusgalli), a monocotyledonous weed, and velvetleaf (Abutilon theophrasti), a dicotyledonous weed. In the tables below, these weeds are indicated by the symbols "BYG" and "VL", respectively.
(§5) In this example, yet another α-chloroacetanilide co-herbicide, metazachlor (Herbicide No. 14) was combined with Herbicide No. 1 for investigation of the effect of various safeners on that composition. Metazachlor is the active ingredient in the commercial herbicide BUTISAN® S, used here as a 500 g/L formulation.

[4] = tested on: velvetleaf (Abutilon theophrasti); test: as above
Method: as §1, §2, §3, §4, §5

corn [5] = test: Example 8, Procedure II: Herbicide No. 1 + butachlor (No. 9) with antidotes
Method: as §1, §2, §3
(§6) In this test, the efficacy of the same five antidotes used in Examples 6 and 7 was investigated in compositions comprising Herbicide No. 1 and as a co-herbicide, butachlor (Herbicide No. 9), active ingredient in MACHETE® herbicide, a leading commercial rice herbicide. The test procedure used in this example was the same as that in Examples 6 and 7.

corn [6] = test: Example 6, Procedure II: Herbicide No. 1 + alachlor (No. 7) with antidotes
Procedure, shortened: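 Herbicide No. 1 plus alachlor and antidote, each applied in acetone, mixed into silt loam cover soil over seeded corn; untreated and herbicide-only controls included. Given initial overhead irrigation equal to 0.6 cm rainfall, then greenhouse sub-irrigation. Percent injury scored, duplicate averages; efficacy is injury without minus with antidote.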

corn [7] = test: Example 5, Procedure I: Herbicide No. 1 + alachlor (No. 7) with Antidote Nos. 15 and 16
Procedure, shortened: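 Greenhouse pot test in silt loam; herbicide No. 1 plus alachlor co-herbicide and antidote, each applied in acetone, mixed into cover soil over seeded beds, sub-irrigated. Percent injury scored; antidote efficacy as injury difference without vs with antidote.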

corn [8] = test: Example 11, Procedure II: Herbicide No. 1 + metazachlor (No. 14) with antidotes
Method: as §1, §2, §3, §5

[9] = tested on: barnyardgrass (Echinochloa crusgalli); test: Example 8, Procedure II: Herbicide No. 1 + butachlor (No. 9) with antidotes
Method: as §1, §2, §3, §4, §6

[10] = tested on: velvetleaf (Abutilon theophrasti); test: as above
Method: as §1, §2, §3, §4, §6

[11] = Herbicide No.1 0.56 kg/ha alone, no antidote
[12] = Herbicide No.1 1.12 kg/ha alone, no antidote
[13] = Herbicide No.1 0.14 + No.9 2.24 kg/ha, no antidote
[14] = Herbicide No.1 0.14 kg/ha alone
[15] = Herbicide No.1 0.56 + No.9 (butachlor) 2.24 kg/ha, no antidote
[16] = Herbicide No.1 0.56 kg/ha alone
[17] = Herbicide No.1 0.56 kg/ha + Herbicide No.14 3.36 kg/ha, antidote rate 2.24 kg/ha
[18] = Herbicide No.1 0.56 kg/ha + Herbicide No.14 3.36 kg/ha, antidote rate 8.96 kg/ha
[19] = Herbicide No.1 1.12 kg/ha + Herbicide No.14 3.36 kg/ha, antidote rate 2.24 kg/ha
[20] = Herbicide No.1 1.12 kg/ha + Herbicide No.14 3.36 kg/ha, antidote rate 8.96 kg/ha
[21] = Herbicide No.1 0.14 + No.9 2.24 kg/ha + antidote 2.24 kg/ha
[22] = Herbicide No.1 0.14 + No.9 2.24 kg/ha + antidote 8.96 kg/ha
[23] = Herbicide No.1 0.56 + No.9 2.24 kg/ha + antidote 2.24 kg/ha
[24] = Herbicide No.1 0.56 + No.9 2.24 kg/ha + antidote 8.96 kg/ha

COC(=O)c1c(Cl)nn(C)c1S(=O)(=O)NC(=O)Nc1nc(OC)cc(OC)n1 [Herbicide No. 1]
% Injury Corn (corn [1]; Herbicide No.1 0.14 + No.12 3.36 kg/ha, no antidote): 20%
% Injury Corn (corn [1]; Herbicide No.1 0.14 + No.12 3.36 kg/ha, no antidote (second such line, r25)): 0%
% Injury Corn (corn [1]; Herbicide No.1 0.56 + No.12 3.36 kg/ha, no antidote (second such line, r24)): 10%
% Injury Corn (corn [1]; Herbicide No.1 0.56 + No.12 (metolachlor) 3.36 kg/ha, no antidote): 30%
% Injury Corn (corn [2]; Herb. No. 1 0.56 kg/ha, no antidote): 7%
% Injury Corn (corn [2]; Herb. No. 1 1.12 kg/ha, no antidote): 13%
% Injury Corn (corn [2]; Herb. No. 1 2.24 kg/ha, no antidote): 38%
% Injury Corn (corn [2]; Herb. No. 1 4.48 kg/ha, no antidote): 60%
% Injury BYG [3, 11]: 75%
% Injury BYG [3, 12]: 80%
% Injury VL [4, 11]: 75%
% Injury VL [4, 12]: 80%
% Injury Corn (corn [5]; [13]): 25%
% Injury Corn (corn [5]; [14]): 10%
% Injury Corn (corn [5]; [15]): 65%
% Injury Corn (corn [5]; [16]): 60%
% Injury Corn (corn [6]; Herbicide No.1 0.14 + No.7 4.48 kg/ha, no antidote): 20%
% Injury Corn (corn [6]; [14]): 5%
% Injury Corn (corn [6]; Herbicide No.1 0.56 + No.7 (alachlor) 4.48 kg/ha, no antidote, average of duplicates): 30%
% Injury Corn (corn [6]; [16]): 25%
% Injury Corn (corn [7]; Herbicide No.1 4.48 + No.7 0.56 kg/ha, no antidote): 95%
% Injury Corn (corn [7]; Herbicide No.1 4.48 + No.7 2.24 kg/ha, no antidote): 95%
% Injury Corn (corn [7]; Herbicide No.1 6.72 + No.7 0.56 kg/ha, no antidote): 93%
% Injury Corn (corn [7]; Herbicide No.1 6.72 + No.7 (alachlor) 2.24 kg/ha, no antidote): 95%
% Injury Corn (corn [8]; [11]): 65%
% Injury Corn (corn [8]; [12]): 65%
% Injury BYG [9, 13]: 100%
% Injury BYG [9, 14]: 55%
% Injury BYG [9, 15]: 100%
% Injury BYG [9, 16]: 93%
% Injury VL [10, 13]: 70%
% Injury VL [10, 14]: 70%
% Injury VL [10, 15]: 85%
% Injury VL [10, 16]: 85%

CC1(C)OC(c2ccco2)CN1C(=O)C(Cl)Cl (stereo not drawn) [compound 15]
% Injury Corn (corn [1]; Herbicide No.1 0.14 + No.12 3.36 kg/ha + antidote 2.24 kg/ha): 0%
% Injury Corn (corn [1]; Herbicide No.1 0.14 + No.12 3.36 kg/ha + antidote 8.96 kg/ha): 10%
% Injury Corn (corn [1]; Herbicide No.1 0.56 + No.12 3.36 kg/ha + antidote 2.24 kg/ha): 15%
% Injury Corn (corn [1]; Herbicide No.1 0.56 + No.12 3.36 kg/ha + antidote 8.96 kg/ha): 15%
% Injury Corn (corn [2]; Herb. No. 1 0.56 kg/ha + antidote 0.56 kg/ha): 0%
% Injury Corn (corn [2]; Herb. No. 1 0.56 kg/ha + antidote 2.24 kg/ha): 0%
% Injury Corn (corn [2]; Herb. No. 1 0.56 kg/ha + antidote 8.96 kg/ha): 0%
% Injury Corn (corn [2]; Herb. No. 1 1.12 kg/ha + antidote 0.56 kg/ha): 0%
% Injury Corn (corn [2]; Herb. No. 1 1.12 kg/ha + antidote 2.24 kg/ha): 0%
% Injury Corn (corn [2]; Herb. No. 1 1.12 kg/ha + antidote 8.96 kg/ha): 0%
% Injury Corn (corn [2]; Herb. No. 1 2.24 kg/ha + antidote 0.56 kg/ha): 15%
% Injury Corn (corn [2]; Herb. No. 1 2.24 kg/ha + antidote 2.24 kg/ha): 0%
% Injury Corn (corn [2]; Herb. No. 1 2.24 kg/ha + antidote 8.96 kg/ha): 0%
% Injury Corn (corn [2]; Herb. No. 1 4.48 kg/ha + antidote 0.56 kg/ha): 0%
% Injury Corn (corn [2]; Herb. No. 1 4.48 kg/ha + antidote 2.24 kg/ha): 5%
% Injury Corn (corn [2]; Herb. No. 1 4.48 kg/ha + antidote 8.96 kg/ha): 0%
% Injury Corn (corn [2]; antidote 8.96 kg/ha alone, no herbicide): 0%
% Injury BYG [3, 17]: 100%
% Injury BYG [3, 18]: 100%
% Injury BYG [3, 19]: 100%
% Injury BYG [3, 20]: 100%
% Injury VL [4, 17]: 90%
% Injury VL [4, 18]: 90%
% Injury VL [4, 19]: 85%
% Injury VL [4, 20]: 85%
% Injury Corn (corn [5]; [21]): 20%
% Injury Corn (corn [5]; [22]): 15%
% Injury Corn (corn [5]; [23]): 10%
% Injury Corn (corn [5]; [24]): 10%
% Injury Corn (corn [6]; Herbicide No.1 0.14 + No.7 4.48 kg/ha + antidote 2.24 kg/ha): 20%
% Injury Corn (corn [6]; Herbicide No.1 0.14 + No.7 4.48 kg/ha + antidote 8.96 kg/ha): 10%
% Injury Corn (corn [6]; Herbicide No.1 0.56 + No.7 4.48 kg/ha + antidote 2.24 kg/ha): 15%
% Injury Corn (corn [6]; Herbicide No.1 0.56 + No.7 4.48 kg/ha + antidote 8.96 kg/ha): 15%
% Injury Corn (corn [7]; Herbicide No.1 4.48 + No.7 0.56 kg/ha + antidote 0.56 kg/ha): 23%
% Injury Corn (corn [7]; Herbicide No.1 4.48 + No.7 0.56 kg/ha + antidote 2.24 kg/ha): 40%
% Injury Corn (corn [7]; Herbicide No.1 4.48 + No.7 2.24 kg/ha + antidote 0.56 kg/ha): 30%
% Injury Corn (corn [7]; Herbicide No.1 4.48 + No.7 2.24 kg/ha + antidote 2.24 kg/ha): 23%
% Injury Corn (corn [7]; Herbicide No.1 6.72 + No.7 0.56 kg/ha + antidote 0.56 kg/ha): 25%
% Injury Corn (corn [7]; Herbicide No.1 6.72 + No.7 0.56 kg/ha + antidote 2.24 kg/ha): 25%
% Injury Corn (corn [7]; Herbicide No.1 6.72 + No.7 2.24 kg/ha + antidote 0.56 kg/ha): 45%
% Injury Corn (corn [7]; Herbicide No.1 6.72 + No.7 2.24 kg/ha + antidote 2.24 kg/ha): 50%
% Injury Corn (corn [8]; [17]): 65%
% Injury Corn (corn [8]; [18]): 65%
% Injury Corn (corn [8]; [19]): 25%
% Injury Corn (corn [8]; [20]): 40%
% Injury BYG [9, 21]: 99%
% Injury BYG [9, 22]: 98%
% Injury BYG [9, 23]: 95%
% Injury BYG [9, 24]: 97%
% Injury VL [10, 21]: 85%
% Injury VL [10, 22]: 70%
% Injury VL [10, 23]: 80%
% Injury VL [10, 24]: 75%
